# Source: patent publication US20110027348A1, “COMPOSITION AND METHOD INHIBITING INFLAMMATION” (priority 2007, published 2011)
# Assays:
# TNF-alpha = assay: LPS-evoked immunogenic inflammation, TNF-alpha levels in monocyte/macrophage culture (Example I/1); format: cell-based; conditions: RAW 264,7 culture, control 0%
# Method: The purpose of this experimental model was to measure inhibitory influence of omega 3 fatty acids, vitamin E and CoQ10 separately and in combination, using methods disclosed in literature (J. Surg Res. 2002 September; 107(1):135-139). For evoking inflammation bacterial endotoxin (LPS) was used and changes in levels of a proinflammatory cytokin, TNF-alpha were measured in a monocyte/macrophage (RAW 264,7) culture. It is clear that both combinations show inhibition of inflammation, the 3 member combination a considerably higher one.
# [1] = tested on: neurogenic inflammation evoked by capsaicin; assay: Capsaicin-evoked neurogenic inflammation in newborn rats (Example I/2); format: in vivo, Sprague Dawley rats
# Method: Neurogenic inflammation was evoked in newborn ([…]) Sprague Dawley rats by intraperitoneal administration of capsaicin (50 mg/kg of body mass) as described in the literature (Acta Physiol. Hung. 1987; 69(3-4):323-32). Twenty-four hours before capsaicin injection 10 ml intravenous infusions each of CoQ10, or omega 3+vitamin E, or omega 3+vitamin E+CoQ10 were applied. Each of these combinations contained 1.0 g omega 3, 10 mg vitamin E and 10 mg CoQ10. […] Hypotensive shock and subsequent death were prevented by pre-treatment with omega 3+vitamin E in 26% and in the omega 3+vitamin E+CoQ10 in 64%, while in the control group only 22% survived. […] Six weeks after the capsaicin injection, corneal transparency and sensitivity returned to normal in the pre-treated groups, while in the control group reduced transparency and sensitivity were observed.
# [2] = tested on: retinal pigment epithelial (RPE) cells; assay: Retinal cell culture, growth and differentiation of RPE cells (Example I/6); format: cell-based, Wistar rats; conditions: 7 day stage, morphometric analysis, control 0%
# Method: The aim of this study was to reveal the influence of omega 3 fatty acids, Vitamin E, CoQ10 and LB separately or in combination on the development and differentiation of retinal cells in culture (in vitro). Retinas of newborn (1-2 days) Wistar rats were isolated. and cultured as described in our previous paper (Int. J. Dev. Neurosc. 1998 August; 16(5):423-32). In six different combinations, the culture medium contained 10 g omega 3 fatty acids, 100 mg vitamin E, 100 mg CoQ10 and 0.05 microgram LB per 100 ml. At the 7 day stage size and differentiation of retinal pigment epithelial (RPE) cells were determined by morphometric analysis, as described in the cited work.
Compound,Decrease in proinflammatory cytokine levels in immunogenic inflammation: TNF-alpha (TNF-alpha),"Neurogenic inflammation, acute features (survival; hypotensive shock and subsequent death prevented) ([1]; 10 ml i.v. infusion 24 hours before capsaicin 50 mg/kg i.p., control 22%)","Neurogenic inflammation, chronic features ([1]; 10 ml i.v. infusion 24 hours before capsaicin, six weeks after capsaicin, control 20%)",RPE differentiation [2],RPE growth [2]
CC(=O)Oc1ccccc1C(=O)O [aspirin],−21%,–,–,–,–
"COC1=C(OC)C(=O)C(C/C=C(\C)CC/C=C(\C)CC/C=C(\C)CC/C=C(\C)CC/C=C(\C)CC/C=C(\C)CC/C=C(\C)CC/C=C(\C)CC/C=C(\C)CCC=C(C)C)=C(C)C1=O [CoQ10, ubiquinone 10]",−3%,22%,25%,3%,1%
